Test results from US7989451B2, “Tricyclic 1,2,4-triazine oxides and compositions for therapeutic use in cancer treatments” (Auckland Uniservices Limited, priority 2005, dated 2011).
Structures can show the parent of a compound that is named as a salt.

Row | SMILES | melting point
1 | C=CCc1nc2cc3c(cc2[n+]([O-])n1)CCC3 [Compound 69, 3-Allyl-7,8-dihydro-6H-indeno[5,6-e][1,2,4]triazine 1-Oxide] | 60 to 61 °C
2 | COCCN(C)CCNc1nc2cc3c(cc2[n+]([O-])n1)CCC3 [Compound 30, N^1-(1-Oxido-7,8-dihydro-6H-indeno[5,6-e][1,2,4]triazin-3-yl)-N^2-(2-methoxyethyl)-N^2-methyl-1,2-ethanediamine] | 107 to 110 °C
3 | C=CCc1nc2cc3c(cc2[n+]([O-])n1)CC(CO[Si](C)(C)C(C)(C)C)C3 (stereo not drawn) | 49 to 52 °C
4 | [O-][n+]1nc(NCCN2CCOCC2)[n+]([O-])c2cc3c(cc21)CCC3 (as salt: hydrochloride) [Compound 45, N-[2-(4-Morpholinyl)ethyl]-7,8-dihydro-6H-indeno[5,6-e][1,2,4]triazin-3-amine 1,4-Dioxide] | 184 to 185 °C
5 | CC1CCCC(C)N1CCNc1nc2cc3c(cc2[n+]([O-])n1)CCC3 (stereo not drawn) [Compound 38, N-[2-(2,6-Dimethyl-1-piperidinyl)ethyl]-7,8-dihydro-6H-indeno[5,6-e][1,2,4]triazin-3-amine 1-Oxide] | 173 to 175 °C
6 | CN(C)CCNc1nc2cc3c(cc2[n+]([O-])n1)CCC3 [Compound 22, N^1,N^1-Dimethyl-N^2-(1-oxido-7,8-dihydro-6H-indeno[5,6-e][1,2,4]triazin-3-yl)-1,2-ethanediamine] | 122 to 124 °C
7 | CCCN(CCC)CCNc1nc2ccc3c(c2[n+]([O-])n1)CCC3 [Compound 10, N^1-(1-Oxido-8,9-dihydro-7H-indeno[5,4-e][1,2,4]triazin-3-yl)-N^2,N^2-dipropyl-1,2-ethanediamine] | 148 to 151 °C
8 | CCc1nc2cc3c(cc2[n+]([O-])n1)CC(CO[Si](C)(C)C(C)(C)C)C3 (stereo not drawn) | 63 to 65 °C
9 | [O-][n+]1nc(NCCN2CCCCC2)nc2cc3c(cc21)CCC3 [Compound 36, N-[2-(1-Piperidinyl)ethyl]-7,8-dihydro-6H-indeno[5,6-e][1,2,4]triazin-3-amine 1-Oxide] | 151 to 153 °C
10 | [O-][n+]1nc(NCCO)nc2cc3c(cc21)CCC3 [Compound 24, 2-[(1-Oxido-7,8-dihydro-6H-indeno[5,6-e][1,2,4]triazin-3-yl)amino]ethanol] | 222 to 224 °C
11 | COC1CN(CCCNc2nc3cc4c(cc3[n+]([O-])n2)CCC4)C1 [Compound 54, N-[3-(3-Methoxy-1-azetidinyl)propyl]-7,8-dihydro-6H-indeno[5,6-e][1,2,4]triazin-3-amine 1-Oxide] | 101 to 102 °C
12 | Nc1nc2ccc3c(c2[n+]([O-])n1)CCC3 [Compound 4, 8,9-Dihydro-7H-indeno[5,4-e][1,2,4]triazin-3-amine 1-Oxide] | 270 to 274 °C
13 | CC(C)(C)[Si](C)(C)OCC1Cc2cc3nc(N)n[n+]([O-])c3cc2C1 (stereo not drawn) | 169 to 171 °C
14 | COC1CCCN(CCNc2nc3cc4c(cc3[n+]([O-])n2)CCC4)C1 (stereo not drawn) [Compound 40, N-[2-(3-Methoxy-1-piperidinyl)ethyl]-7,8-dihydro-6H-indeno[5,6-e][1,2,4]triazin-3-amine 1-Oxide] | 123 to 124 °C
15 | N#CC1CCN(CCCNc2nc3cc4c(cc3[n+]([O-])n2)CCC4)C1 (stereo not drawn) [Compound 56, 1-{3-[(1-Oxido-7,8-dihydro-6H-indeno[5,6-e][1,2,4]triazin-3-yl)amino]propyl}-3-pyrrolidinecarbonitrile] | 111 to 112 °C
16 | COCCN(C)CCCNc1nc2cc3c(cc2[n+]([O-])n1)CCC3 [Compound 52, N^1-(2-Methoxyethyl)-N^1-methyl-N^3-(1-oxido-7,8-dihydro-6H-indeno[5,6-e][1,2,4]triazin-3-yl)-1,3-propanediamine] | 59 to 61 °C
17 | [O-][n+]1nc(NCCN2CCOCC2)nc2cc3c(cc21)CCC3 [Compound 44, N-[2-(4-Morpholinyl)ethyl]-7,8-dihydro-6H-indeno[5,6-e][1,2,4]triazin-3-amine 1-Oxide] | 178 to 179 °C
18 | CCN(CC)CCNc1nc2ccc3c(c2[n+]([O-])n1)CCC3 [Compound 8, N^1,N^1-Diethyl-N^2-(1-oxido-8,9-dihydro-7H-indeno[5,4-e][1,2,4]triazin-3-yl)-1,2-ethanediamine] | 126 to 130 °C
19 | [O-][n+]1nc(NCCN2CCCOCC2)nc2cc3c(cc21)CCC3 [Compound 48, N-[2-(1,4-Oxazepan-4-yl)ethyl]-7,8-dihydro-6H-indeno[5,6-e][1,2,4]triazin-3-amine 1-Oxide] | 119 to 120 °C

The next lines start with the values.

Row | melting point | SMILES
20 | 96 to 99 °C | CCc1nc2cc3c(cc2[n+]([O-])n1)CC(CCO)C3 (stereo not drawn) [Compound 161, 2-(3-Ethyl-1-oxido-7,8-dihydro-6H-indeno[5,6-e][1,2,4]triazin-7-yl)ethanol]
21 | 131 to 133 °C | [O-][n+]1nc(CCCO)nc2cc3c(cc21)CCC3 [Compound 70, 3-(1-Oxido-7,8-dihydro-6H-indeno[5,6-e][1,2,4]triazin-3-yl)-1-propanol]
22 | 150 to 152 °C | CN(C)CCNc1nc2cc3c(cc2[n+]([O-])n1)OCCC3 [Compound 241, N^1,N^1-Dimethyl-N^2-(1-oxido-7,8-dihydro-6H-chromeno[6,7-e][1,2,4]triazin-3-yl)-1,2-ethanediamine]
23 | 115 to 116 °C | [O-][n+]1nc(NCCCN2CCOCC2)nc2cc3c(cc21)CCCC3 [Compound 179, N-[3-(4-Morpholinyl)propyl]-6,7,8,9-tetrahydronaphtho[2,3-e][1,2,4]triazin-3-amine 1-Oxide]
24 | 182 to 185 °C | [O-][n+]1nc(NCCCN2CCOCC2)[n+]([O-])c2cc3c(cc21)CCCC3 (as salt: hydrochloride) [Compound 180, N-[3-(4-Morpholinyl)propyl]-6,7,8,9-tetrahydronaphtho[2,3-e][1,2,4]triazin-3-amine 1,4-Dioxide]
25 | 203 to 205 °C | [O-][n+]1nc(Cl)nc2cc3c(cc21)CCO3 [Compound 206, 3-Chloro-7,8-dihydrofuro[2,3-g][1,2,4]benzotriazine 1-Oxide]
26 | 187 to 190 °C | CCNc1nc2cc3c(cc2[n+]([O-])n1)CC(N(C)C)C3 (stereo not drawn) [Compound 113, N^3-Ethyl-N^7,N^7-dimethyl-7,8-dihydro-6H-indeno[5,6-e][1,2,4]triazine-3,7-diamine 1-Oxide]
27 | 131 to 133 °C | CCc1n[n+]([O-])c2cc3c(cc2[n+]1[O-])CC(CCN1CCOCC1)C3 (stereo not drawn) (as salt: hydrochloride) [Compound 164, 3-Ethyl-7-[2-(4-morpholinyl)ethyl]-7,8-dihydro-6H-indeno[5,6-e][1,2,4]triazine 1,4-Dioxide]
28 | 142 to 144 °C | [O-][n+]1nc(NCCCN2CCOCC2)nc2cc3c(cc21)OCC3 [Compound 199, N-[3-(4-Morpholinyl)propyl]-6,7-dihydrofuro[3,2-g][1,2,4]benzotriazin-3-amine 1-Oxide]
29 | 149 to 152 °C | CN(C)CCNc1nc2cc3c(cc2[n+]([O-])n1)CCCCC3 [Compound 188, N^1,N^1-Dimethyl-N^2-(1-oxido-7,8,9,10-tetrahydro-6H-cyclohepta[g][1,2,4]benzotriazin-3-yl)-1,2-ethanediamine]
30 | 149 to 151 °C | CN(C)CCNc1nc2cc3c(cc2[n+]([O-])n1)CCCC3 [Compound 177, N^1-(1-Oxido-6,7,8,9-tetrahydronaphtho[2,3-e][1,2,4]triazin-3-yl)-N^2,N^2-dimethyl-1,2-ethanediamine]
31 | 129 to 131 °C | CCc1nc2cc3c(cc2[n+]([O-])n1)CCN(C)C3 [Compound 260, 3-Ethyl-7-methyl-6,7,8,9-tetrahydro[1,2,4]triazino[6,5-g]isoquinoline 1-Oxide]
32 | 148 to 151 °C | CN(C)CCNc1n[n+]([O-])c2cc3c(cc2[n+]1[O-])CCCC3 [Compound 178, N^1-(1,4-Dioxido-6,7,8,9-tetrahydronaphtho[2,3-e][1,2,4]triazin-3-yl)-N^2,N^2-dimethyl-1,2-ethanediamine]
33 | 138 to 140 °C | CC1Cc2cc3nc(NCCCN4CCOCC4)n[n+]([O-])c3cc2C1 (stereo not drawn) [Compound 98, 7-Methyl-N-[3-(4-morpholinyl)propyl]-7,8-dihydro-6H-indeno[5,6-e][1,2,4]triazin-3-amine 1-Oxide]
34 | 210 to 212 °C | [O-][n+]1nc(CCCN2CCOCC2)nc2cc3c(cc21)CC(CO)C3 (stereo not drawn) (as salt: hydrochloride) [Compound 140, {3-[3-(4-Morpholinyl)propyl]-1-oxido-7,8-dihydro-6H-indeno[5,6-e][1,2,4]triazin-7-yl}methanol]
35 | 122 to 123 °C | CCc1nc2cc3c(cc2[n+]([O-])n1)CC(CO)C3 (stereo not drawn) [Compound 142, (3-Ethyl-1-oxido-7,8-dihydro-6H-indeno[5,6-e][1,2,4]triazin-7-yl)methanol]
36 | 226 to 229 °C | CN1CCc2ccc3nc(N)n[n+]([O-])c3c2C1 [Compound 262, 9-Methyl-7,8,9,10-tetrahydro[1,2,4]triazino[5,6-h]isoquinolin-3-amine 1-Oxide]
37 | 293 to 296 °C | Nc1nc2cc3c(cc2[n+]([O-])n1)CCO3 [Compound 204, 7,8-Dihydrofuro[2,3-g][1,2,4]benzotriazin-3-amine 1-Oxide]
38 | 72 to 74 °C | O=CCCc1nc2cc3c(cc2[n+]([O-])n1)CCC3 [Compound 75, 3-(1-oxido-7,8-dihydro-6H-indeno[5,6-e][1,2,4]triazin-3-yl)propanal]
39 | 96 to 99 °C | [O-][n+]1nc(CCCN2CCOCC2)nc2cc3c(cc21)CCO3 [Compound 215, 3-[3-(4-Morpholinyl)propyl]-7,8-dihydrofuro[2,3-g][1,2,4]benzotriazine 1-Oxide]
